Among the data in patent US20090325933A1, “Pyrimidinone Derivatives and Their Use as a Drug” (Ipsen Pharma S.A.S., priority 2006, published 2009) are Ki values, retold here.

Where two headings read alike, the source gives them in different places.

The test concerns the target T1, human CB2 receptors (Homo sapiens, UniProt P34972).
T1 construct: expressed in transfected cells; membrane preparations
Description: Affinity for human CB2 cannabinoid receptors: inhibition of [3H]-CP55940 binding to transfected CHO-K1 cell membranes. The conditions noted are these: inhibition constant value range, [3H]-CP55940 1 nM, Cheng-Prusoff. How it is done: The affinity of the compounds of the present invention for the different sub-types of cannabinoid receptors was measured according to procedures analogous to those described hereafter for the human CB2 receptor.
Study of the Affinity of the Compounds for the Human CB2 Cannabinoid Receptors:
The affinity of the compounds of the invention for the human CB2 receptors is determined by measuring the inhibition of the binding of [^3H]-CP55940 to transfected CHO-K1 cell membrane preparations.
The CHO-K1 cells expressing the human CB2 receptors in stable fashion are cultured in an RPMI 1640 medium containing 10% foetal calf serum, 2 mM of glutamine, 100 U/ml of penicillin, 0.1 mg/ml of streptomycin and 0.5 mg/ml of G418. The cells are collected with 0.5 mM of EDTA and centrifuged at 500 g for 5 minutes at 4° C. The pellet is re-suspended in phosphate buffered saline medium (PBS) and centrifuged at 500 g for 5 minutes at 4° C. The pellet is re-suspended in a Tris 50 mM buffer medium at pH 7.4 and centrifuged at 500 g for 5 minutes at 4° C. The cells are lysed by sonication and centrifuged at 39,000 g for 10 minutes at 4° C. The pellet is re-suspended in the Tris 50 mM buffer medium at pH 7.4 and centrifuged at 50,000 g for 10 minutes at 4° C. The membranes obtained in this last pellet are stored at −80° C.
Measurement of the competitive inhibition of the binding of the [^3H]-CP55940 to the CB2 receptors is carried out in duplicate using 96-well polypropylene plates. The cell membranes (10 μg of proteins/well) are incubated with the [^3H]-CP55940 (1 nM) for 60 minutes at 25° C. in a Tris-HCl 50 mM buffer medium, pH 7.4, comprising 0.1% bovine serum albumin (BSA), 5 mM of MgCl2, and 50 μg/ml of bacitracin.
The bound [^3H]-CP55940 is separated from the free [^3H]-CP55940 by filtration through GF/C glass fibre filter plates (Unifilter, Packard) pre-impregnated with 0.1% polyethylenimine (P.E.I.), using a Filtermate 196 (Packard). The filters are washed with Tris-HCl 50 mM buffer, pH 7.4 at 0-4° C. and the radioactivity present is determined using a counter (Packard Top Count).
The specific binding is obtained by subtracting the non-specific binding (determined in the presence of 0.1 μM of WIN55212-2 from the total binding). The data are analyzed by computer-assisted non-linear regression (MDL). For each test, a Cheng-Prusoff correction is made in order to convert the IC50 to the inhibition constant, Ki.
where [L] is the concentration of the radioligand used in the test and Kd is the radioligand equilibrium dissociation constant.

T1 sequence (P34972 whole entry): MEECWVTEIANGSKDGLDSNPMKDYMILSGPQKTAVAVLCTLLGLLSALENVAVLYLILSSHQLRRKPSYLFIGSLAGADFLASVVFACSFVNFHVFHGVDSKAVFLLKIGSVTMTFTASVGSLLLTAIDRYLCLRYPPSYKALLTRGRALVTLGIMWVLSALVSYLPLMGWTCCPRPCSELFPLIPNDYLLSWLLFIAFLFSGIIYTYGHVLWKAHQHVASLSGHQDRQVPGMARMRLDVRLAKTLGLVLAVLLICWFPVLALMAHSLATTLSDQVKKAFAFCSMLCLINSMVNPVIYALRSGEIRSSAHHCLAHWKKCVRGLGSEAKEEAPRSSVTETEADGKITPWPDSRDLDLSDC

For the molecule `Cc1cc2nc(-c3ccc(-c4c(C)cccc4C)cc3)n(CCN3CCCCC3)c(=O)c2s1` [Example 91], the Ki runs as follows: (read-out: Ki < 0.5 μM) < 0.5 µM; (read-out: Ki < 5 μM) < 5 µM.

`O=c1c2sccc2nc(-c2ccc(-c3ccccc3)cc2)n1CCC1CCCCC1` [Example 11]: the Ki by setting is: (read-out: Ki < 0.5 μM) < 0.5 µM; (read-out: Ki < 5 μM) < 5 µM. On to `O=c1c2sccc2nc(-c2ccc(-c3ccccc3)cc2)n1CCC1CCOCC1` [Example 12], for which the Ki is, setting by setting: (read-out: Ki < 0.5 μM) < 0.5 µM; (read-out: Ki < 5 μM) < 5 µM.

For the molecule `Cc1ccc(-c2ccc(-c3nc4ccsc4c(=O)n3CCN3CCCCC3)cc2)cc1C` [Example 60], the Ki (read-out: Ki < 0.5 μM) was < 0.5 µM and the Ki (read-out: Ki < 5 μM) was < 5 µM.

As to `O=c1c2sccc2nc(-c2ccc(-c3c(F)cccc3F)cc2)n1CCN1CCCCC1` [Example 82], the Ki (read-out: Ki < 0.5 μM) is < 0.5 µM and the Ki (read-out: Ki < 5 μM) is < 5 µM.

As for `O=c1c2sccc2nc(-c2ccc(-c3ccccc3)cc2)n1CCc1ccc(Cl)cc1Cl` [Example 6], the Ki was < 0.5 µM (read-out: Ki < 0.5 μM) and < 5 µM (read-out: Ki < 5 μM). For the molecule `Cc1ccccc1CCn1c(-c2ccc(-c3ccccc3)cc2)nc2ccsc2c1=O` [Example 8], the Ki (read-out: Ki < 5 μM) was < 5 µM. `Cc1ccc(CCn2c(-c3ccc(-c4ccccc4)cc3)nc3ccsc3c2=O)cc1C` [Example 9]: the inhibitory constant (Ki) (read-out: Ki < 5 μM) is < 5 µM.

Turning to `O=C(c1ccccc1)c1ccc(-c2nc3ccsc3c(=O)n2CCN2CCCCC2)cc1` [Example 29], the Ki is, setting by setting: (read-out: Ki < 0.5 μM) < 0.5 µM; (read-out: Ki < 5 μM) < 5 µM. For the molecule `O=c1c2sccc2nc(-c2ccc3cc4ccccc4cc3c2)n1CCN1CCCCC1` [Example 50], the Ki runs as follows: (read-out: Ki < 0.5 μM) < 0.5 µM; (read-out: Ki < 5 μM) < 5 µM.

As for `Cc1cc2nc(-c3ccc(-c4ccccc4C)cc3)n(CCN3CCCCC3)c(=O)c2s1` [Example 68], the Ki (read-out: Ki < 0.5 μM) is < 0.5 µM and the Ki (read-out: Ki < 5 μM) is < 5 µM. Take `Cc1cc2nc(-c3ccc(-c4ccccc4C(F)(F)F)cc3)n(CCN3CCCCC3)c(=O)c2s1` [Example 83]: the Ki is < 0.5 µM (read-out: Ki < 0.5 μM) and < 5 µM (read-out: Ki < 5 μM). Take `O=c1c2sccc2nc(-c2ccc(C3CCCCC3)cc2)n1CCN1CCCCC1` [Example 36]: the Ki reads like this: (read-out: Ki < 0.5 μM) < 0.5 µM; (read-out: Ki < 5 μM) < 5 µM. Taken in the same sequence, the figures for `O=c1c2sc3ccccc3c2nc(-c2ccc(-c3ccccc3)cc2)n1CCN1CCCCC1` [Example 44] were < 0.5 µM and < 5 µM. Taken in the same sequence, the figures for `O=c1c2sccc2nc(-c2ccc(-c3ccccc3)cc2)n1CCc1ccc(Cl)c(Cl)c1` [Example 7] were < 0.5 µM and < 5 µM.

Regarding `O=c1c2sccc2nc(-c2ccc(-c3ccc(F)cc3)cc2)n1CCN1CCCCC1` [Example 73], the Ki by setting is: (read-out: Ki < 0.5 μM) < 0.5 µM; (read-out: Ki < 5 μM) < 5 µM. With `O=c1c2sccc2nc(-c2ccc(-c3ccccc3)cc2)n1CCC1C[C@H]2CC[C@@H]1C2` (some centres unmarked) [Example 59], the inhibition constant (Ki) (read-out: Ki < 5 μM) was < 5 µM. For `O=C(c1ccccc1)c1ccc(-c2nc3ccsc3c(=O)n2CCN2CCOCC2)cc1` [Example 30], the Ki reads like this: (read-out: Ki < 0.5 μM) < 0.5 µM; (read-out: Ki < 5 μM) < 5 µM. Take `O=c1c2sccc2nc(-c2ccc(-c3cccc(C(F)(F)F)c3)cc2)n1CCN1CCCCC1` [Example 74]: the inhibitory constant (Ki) is, setting by setting: (read-out: Ki < 0.5 μM) < 0.5 µM; (read-out: Ki < 5 μM) < 5 µM. Take `Cc1cc2nc(-c3ccc(-c4ccccc4)cc3)n(CCN3CCCCC3)c(=O)c2s1` [Example 61]: the Ki reads like this: (read-out: Ki < 0.5 μM) < 0.5 µM; (read-out: Ki < 5 μM) < 5 µM. With `O=c1c2sccc2nc(-c2ccc(-c3ccccc3)cc2)n1CCN1CCOCC1` [Example 27], the Ki is < 0.5 µM (read-out: Ki < 0.5 μM) and < 5 µM (read-out: Ki < 5 μM). Turning to `COc1ccccc1-c1ccc(-c2nc3ccsc3c(=O)n2CCN2CCCCC2)cc1` [Example 76], the Ki reads like this: (read-out: Ki < 0.5 μM) < 0.5 µM; (read-out: Ki < 5 μM) < 5 µM. As for `COc1cccc(-c2ccc(-c3nc4cc(C)sc4c(=O)n3CCN3CCCCC3)cc2)c1` [Example 88], the Ki is, setting by setting: (read-out: Ki < 0.5 μM) < 0.5 µM; (read-out: Ki < 5 μM) < 5 µM. Consider `COc1ccc(CCn2c(-c3ccc(-c4ccccc4)cc3)nc3ccsc3c2=O)cc1OC` [Example 2], for which the Ki (read-out: Ki < 5 μM) was < 5 µM.

Regarding `O=c1c2sccc2nc(-c2ccc(C3CCCCC3)cc2)n1CCc1ccccc1` [Example 18], the inhibition constant Ki was < 0.5 µM (read-out: Ki < 0.5 μM) and < 5 µM (read-out: Ki < 5 μM). For `O=c1c2sccc2nc(-c2ccc(-c3cc(Cl)cc(Cl)c3)cc2)n1CCN1CCCCC1` [Example 92], in that order: < 0.5 µM and < 5 µM.

Consider `Cc1cccc(-c2ccc(-c3nc4cc(C)sc4c(=O)n3CCN3CCCCC3)cc2)c1` [Example 84], for which the Ki is < 0.5 µM (read-out: Ki < 0.5 μM) and < 5 µM (read-out: Ki < 5 μM). Take `O=c1c2sccc2nc(-c2ccc(-c3ccccc3F)cc2)n1CCN1CCCCC1` [Example 69]: the Ki runs as follows: (read-out: Ki < 0.5 μM) < 0.5 µM; (read-out: Ki < 5 μM) < 5 µM.

As for `O=c1c2sccc2nc(-c2ccc(-c3ccccc3)cc2)n1CCc1cccnc1` [Example 14], the Ki (read-out: Ki < 5 μM) is < 5 µM. Turning to `O=c1c2sccc2nc(-c2ccc(-c3ccccc3)c(F)c2)n1CCN1CCCCC1` [Example 67], the inhibition constant Ki (read-out: Ki < 0.5 μM) is < 0.5 µM and the Ki (read-out: Ki < 5 μM) is < 5 µM. `O=C1c2ccccc2C(=O)c2cc(-c3nc4ccsc4c(=O)n3CCN3CCCCC3)ccc21` [Example 25]: the Ki reads like this: (read-out: Ki < 0.5 μM) < 0.5 µM; (read-out: Ki < 5 μM) < 5 µM. For `O=c1c2sccc2nc(-c2ccc(C3CCCCC3)cc2)n1CCC1CCOCC1` [Example 17], in that order: < 0.5 µM and < 5 µM.

For `Cc1cc(C)cc(-c2ccc(-c3nc4ccsc4c(=O)n3CCN3CCCCC3)cc2)c1` [Example 80], the Ki was < 0.5 µM (read-out: Ki < 0.5 μM) and < 5 µM (read-out: Ki < 5 μM). Taken in the same sequence, the figures for `O=c1c2sccc2nc(-c2ccc(C3CCCCC3)cc2)n1CCN1CCCC1` [Example 35] were < 0.5 µM and < 5 µM. `Cc1ccccc1-c1ccc(-c2nc3ccsc3c(=O)n2CCN2CCCCC2)cc1` [Example 54]: the Ki runs as follows: (read-out: Ki < 0.5 μM) < 0.5 µM; (read-out: Ki < 5 μM) < 5 µM. Take `O=c1c2sccc2nc(C2CCC(c3ccccc3)CC2)n1CCN1CCCCC1` (centres unmarked) [Example 53]: the inhibition constant Ki (read-out: Ki < 0.5 μM) is < 0.5 µM and the inhibitory constant (Ki) (read-out: Ki < 5 μM) was < 5 µM.

As for `O=c1c2ccsc2nc(-c2ccc(-c3ccccc3)cc2)n1CCN1CCCCC1` [Example 49], the Ki was < 0.5 µM (read-out: Ki < 0.5 μM) and < 5 µM (read-out: Ki < 5 μM). With `O=c1c2sccc2nc(-c2ccc(-c3ccccc3)cc2)n1CCN1CCCCCC1` [Example 34], the Ki by setting is: (read-out: Ki < 0.5 μM) < 0.5 µM; (read-out: Ki < 5 μM) < 5 µM. As for `Cc1csc2c(=O)n(CCN3CCCCC3)c(-c3ccc(-c4ccccc4)cc3)nc12` [Example 46], the Ki (read-out: Ki < 0.5 μM) was < 0.5 µM and the Ki (read-out: Ki < 5 μM) was < 5 µM.

Consider `Cc1cccc(-c2ccc(-c3nc4c(C)c(C)sc4c(=O)n3CCN3CCCCC3)cc2)c1` [Example 70], for which the Ki was < 0.5 µM (read-out: Ki < 0.5 μM) and < 5 µM (read-out: Ki < 5 μM). For `O=c1c2sccc2nc(-c2ccc(-c3cccc(Cl)c3)cc2)n1CCN1CCCCC1` [Example 79], in that order: < 0.5 µM and < 5 µM. In the case of `O=c1c2sccc2nc(-c2ccc(-c3cccs3)cc2)n1CCN1CCCCC1` [Example 39], the Ki (read-out: Ki < 0.5 μM) was < 0.5 µM and the Ki (read-out: Ki < 5 μM) is < 5 µM. As for `COc1cccc(-c2ccc(-c3nc4ccsc4c(=O)n3CCN3CCCCC3)cc2)c1` [Example 89], the Ki (read-out: Ki < 0.5 μM) was < 0.5 µM and the Ki (read-out: Ki < 5 μM) is < 5 µM. `CC1CCCC(C)N1CCn1c(-c2ccc(-c3ccccc3)cc2)nc2ccsc2c1=O` (centres unmarked) [Example 72]: the Ki (read-out: Ki < 5 μM) was < 5 µM. Consider `O=c1c2sccc2nc(-c2ccc(-c3ccccc3)cc2)n1CCc1cccs1` [Example 3], for which, under “read-out: Ki < 5 μM”, the Ki was < 5 µM. In the case of `O=c1c2sccc2nc(-c2ccc(-c3ccccc3)cc2)n1CCc1ccncc1` [Example 15], the Ki by setting is: (read-out: Ki < 0.5 μM) < 0.5 µM; (read-out: Ki < 5 μM) < 5 µM. In the case of `O=c1c2sc3ccccc3c2nc(-c2ccc(-c3ccccc3)cc2)n1CCC1CCOCC1` [Example 22], the Ki (read-out: Ki < 5 μM) is < 5 µM. Regarding `O=c1c2sccc2nc(-c2ccc(-c3cccs3)cc2)n1CCC1CCOCC1` [Example 19], the inhibitory constant (Ki) (read-out: Ki < 5 μM) was < 5 µM. `COc1ccccc1CCn1c(-c2ccc(-c3ccccc3)cc2)nc2ccsc2c1=O` [Example 1]: the Ki (read-out: Ki < 5 μM) was < 5 µM. `O=c1c2sccc2nc(-c2ccc(C3CCCCC3)cc2)n1CCC1CCCCC1` [Example 16]: the Ki (read-out: Ki < 0.5 μM) was < 0.5 µM and the Ki (read-out: Ki < 5 μM) was < 5 µM. Regarding `O=c1c2sccc2nc(-c2ccc(-c3cccs3)cc2)n1CCc1ccccc1` [Example 20], the Ki (read-out: Ki < 0.5 μM) was < 0.5 µM and the Ki (read-out: Ki < 5 μM) was < 5 µM.

The Ki is the dissociation constant of the complex between target and ligand, obtained from inhibition or displacement.
